# Measured values: US20090010873A1, “Methods of Cell Therapy, Neurogenesis and Oligodendrogenesis” (YEDA RESEARCH AND DEVELOPMENT CO. LTD., priority 2004, published 2009)
# Experiments:
# [1] = test system: C57B1/6J mice with spinal cord injury; assay: Spinal cord contusion in mice: motor recovery (Basso motor score) after immunization and aNPC transplantation; format: in vivo, mouse
# [2] = test system: neural progenitor cells (NPCs); assay: NPCs co-cultured with microglia pre-activated by aggregated Aβ and cytokines (β-III-tubulin); format: cell-based, mouse; conditions: 10 days co-culture; Aβ 5 μM, IFN-γ 10 ng/ml
# Description: (xlvi) Reagents. Recombinant mouse IFN-γ and IL-4 (both containing endotoxin at a concentration below 0.1 ng/μg cytokine) were obtained from R&D Systems (Minneapolis, Minn.). β-amyloid peptides [amyloid protein fragment 1-40 and 1-42 (Aβ1-40/1-42)] were purchased from Sigma-Aldrich, St. Louis, Mo. The Aβ peptides were dissolved in endotoxin-free water, and Aβ aggregates were formed by incubation of Aβ, as described (Ishii et al., 2000).
# (li) Neural progenitor cell culture. Coronal sections (2 mm thick) of tissue containing the subventricular zone of the lateral ventricle were obtained from the brains of adult C57B1/6J mice. The tissue was minced and then incubated for digestion at 37° C., 5% CO2 for 45 min in Earle's balanced salt solution containing 0.94 mg/ml papain (Worthington, Lakewood, N.J.) and 0.18 mg/ml of L-cysteine and EDTA. After centrifugation at 110×g for 15 min at room temperature, the tissue was mechanically dissociated by pipette trituration. Cells obtained from single-cell suspensions were plated (3500 cells/cm^2) in 75-cm^2 Falcon tissue-culture flasks (BD Biosciences, San Diego, Calif.), in NPC-culturing medium [Dulbecco's modified Eagles's medium (DMEM)/F12 medium (Gibco/Invitrogen, Carlsbad, Calif.) containing 2 mM L-glutamine, 0.6% glucose, 9.6 μg/ml putrescine, 6.3 ng/ml progesterone, 5.2 ng/ml sodium selenite, 0.02 mg/ml insulin, 0.1 mg/ml transferrin, 2 μg/ml heparin (all from Sigma-Aldrich, Rehovot, Israel), fibroblast growth factor-2 (human recombinant, 20 ng/ml), and epidermal growth factor (human recombinant, 20 ng/ml; both from Peprotech, Rocky Hill, N.J.)]. Spheres were passaged every 4-6 days and replated as single cells. Green fluorescent protein (GFP)-expressing NPCs were obtained as previously described (Pluchino et al., 2003).
# (lii) Primary microglial culture. Brains from neonatal (P0-P1) C57B1/6J mice were stripped of their meninges and minced with scissors under a dissecting microscope (Zeiss, Stemi DV4, Germany) in Leibovitz-15 medium (Biological Industries, Kibbutz Beit Ha-Emek, Israel). […]
# [3] = test system: neural progenitor cells (NPCs); assay: Oligodendrocyte differentiation of GFP-expressing NPCs co-cultured with differently activated microglia (NG2, RIP); format: cell-based, mouse; conditions: direct addition to NPCs, 500 ng/ml, no insulin
# Description: (i) Neuralprogenitor cell (NPC) culture. Coronal sections (2 mm thick) of tissue containing the subventricular zone of the lateral ventricle were obtained from the brains of adult C57B16/J mice. The tissue was minced and then incubated for digestion at 37° C., 5% CO2 for 45 mine in Earle's balanced salt solution containing 0.94 mg/ml papain (Worthington, Lakewood, N.J.) and 0.18 mg/ml of L-cysteine and EDTA. After centrifugation at 110×g for 15 min at room temperature, the tissue was mechanically dissociated by pipette trituration. Cells obtained from single-cell suspensions were plated (3500 cells/cm^2) in 75-cm^2 Falcon tissue-culture flasks (BD Biosciences, Franklin Lakes, N.J.), in NPC-culturing medium [Dulbecco's modified Eagles's medium (DMEM)/F12 medium (Gibco/Invitrogen, Carlsbad, Calif.) containing 2 mM L-glutamine, 0.6% glucose, 9.6 μg/ml putrescine, 6.3 ng/ml progesterone, 5.2 ng/ml sodium selenite, 0.02 mg/ml insulin, 0.1 mg/ml transferrin, 2 μg/ml heparin (all from Sigma-Aldrich, Rehovot, Israel), fibroblast growth factor-2 (human recombinant, 20 ng/ml), and epidermal growth factor (human recombinant, 20 ng/ml; both from Peprotech, Rocky Hill, N.J.)]. Spheres were passaged every 4-6 days and replated as single cells. Green fluorescent protein (GFP)-expressing neural progenitor cells (NPCs) were obtained as previously described (Pluchino et al., 2003). […]
substance,measurement,setting,value
"OVA/CFA/PBS: nonself protein ovalbumin (OVA) emulsified in CFA, PBS i.c.v.",BMS,"[1]; ovalbumin in CFA 2.5% M. tuberculosis, aNPCs or PBS i.c.v.",2.2±0.68
"MOG, residues 35-55 MEVGWYRSPFSRVVHLYRNGK (emulsified in CFA) [MOG/CFA, MOG peptide 35-55 emulsified in CFA containing 2.5% Mycobacterium tuberculosis]",BMS,"[1]; MOG peptide 35-55 in CFA 2.5% M. tuberculosis one week prior to SCI, no aNPCs",0.35±0.2
Aβ(1-40): aggregated amyloid protein fragment 1-40 used to activate microglia,GFP^+/βIIIT^+ cells (neurogenesis) with microglia activated by the agent,[2],blocked neurogenesis
rIGF-I: recombinant IGF-I,differentiation of NPCs to NG2-expressing cells,[3],significant differentiation to NG2-expressing cells
"altered MOG peptide (45D) MEVGWYRSPFDRVVHLYRNGK [45D peptide, peptide analog of MOG 35-55 containing a serine to aspartic acid substitution]",BMS,"[1]; immunization in CFA 2.5% M. tuberculosis 1 week before SCI, aNPCs i.c.v. 1 week after SCI, mean±SEM",4.11±0.27
same,BMS,"[1]; immunization in CFA 2.5% M. tuberculosis 1 week before SCI, without aNPC transplantation",2.57±0.24
"MOG/CFA/PBS: immunization with pMOG 35-55 in CFA, PBS i.c.v. instead of aNPCs (MEVGWYRSPFSRVVHLYRNGK; in CFA; UniProt Q61885 63-83, looked up, fragment)",mean motor recovery (BMS) score,"[1]; immunization immediately after SCI (pMOG 35-55 or PBS in CFA 0.5% M. tuberculosis), aNPCs or PBS i.c.v. 1 week later, mean±SEM",2.71±0.5
Aβ(1-42): amyloid protein fragment 1-42 used to activate microglia,GFP^+/βIIIT^+ cells (neurogenesis) with microglia activated by the agent,[2],negative effect was not exhibited
